The record followed here is US20250368625A1, “PIPERAZINES” (Grünenthal GmbH, priority 2024, published 2025).

pEC50: −log10 of the molar value.

T1 sequence (P31391 whole entry): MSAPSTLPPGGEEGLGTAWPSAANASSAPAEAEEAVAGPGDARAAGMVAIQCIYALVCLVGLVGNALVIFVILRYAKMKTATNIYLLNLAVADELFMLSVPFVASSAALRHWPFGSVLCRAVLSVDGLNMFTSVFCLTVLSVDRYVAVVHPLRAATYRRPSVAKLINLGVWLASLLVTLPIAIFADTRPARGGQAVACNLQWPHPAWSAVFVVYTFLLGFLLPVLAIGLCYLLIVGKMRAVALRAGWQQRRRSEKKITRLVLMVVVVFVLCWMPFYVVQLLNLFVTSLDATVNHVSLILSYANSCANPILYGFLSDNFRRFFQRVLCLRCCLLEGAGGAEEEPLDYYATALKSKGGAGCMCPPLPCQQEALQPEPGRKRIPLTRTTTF

This experiment concerns the target T1, human SSTR4 (Homo sapiens, UniProt P31391).
T1 construct: expressed in transfected cells; host or cells: CHO-K1
The experiment is described as follows: hSSTR4 cAMP assay (cAMP accumulation, LANCE Ultra cAMP kit, CHO-K1 human SSTR4 Gi cell line). In kind it is cell-based. To be noted: functional agonism, forskolin 10 μM stimulated CHO-K1 human SSTR4 Gi cells, 30 min at 25° C., at least duplicate, averaged; read-out: hSSTR4 EC50. On the procedure: cAMP accumulation assay using a CHO-K1 human SSTR4 Gi cell line.
Quantification of intracellular cAMP was performed using the LANCE Ultra cAMP assay kit from Revvity according to the manufacturer's instructions. CHO-K1 human SSTR4 Gi cell were either seeded in a density of 3K cells per well into a 384 well plate and incubated at 37° C. and 5% CO2 for 18-20 h or a stock of frozen cells were defrosted and seeded in a density of 5K cells per well without any further cultivation directly prior to the assay in a total volume of 5 μL in stimulation buffer. For pre-cultured cells, medium was replaced with 5 μL stimulation buffer before the assay. Cells were then stimulated with forskolin (final concentration 10 μM) and test compound (SSTR4 agonist) in increasing concentrations in duplicates for 30 min at 25° C. After stimulation, cells were lysed by addition of 10 μL of detection buffer (provided with the kit) and cell lysates were further diluted to ensure final cAMP concentrations fitted well into the dynamic range of the test kit. 10 μL of the diluted lysates were then added to respective wells of an OptiPlate-384 microplate. Thereafter, 5 μL of 4× Eu-cAMP tracer working solution was added, followed by addition of 5 μL of ULight-anti-cAMP working solution. The plate was then incubated for 1 h at 25° C. before reading on a TR-FRET microplate instrument. Data were normalized to cAMP high (forskolin only) and low control (forskolin+100 nM SST14) before fitting to a 4-Paramter logistic function.
All data was generated according to the cAMP assay conditions described above in at least duplicate and results are averaged and rounded to two significant figures.
(Cyclic AMP is a second messenger, typically raised through Gs and lowered through Gi signalling.)
What is called pEC50 is −log10 of the EC50, conventionally taken in molar units. In the case of `Cc1cccn2c(C(C)(C)NC(=O)[C@@H]3CN(Cc4ccccn4)CCN3)ncc12` [SC-060, (S)-N-(2-(8-methylimidazo[1,5-a]pyridin-3-yl)propan-2-yl)-4-(pyridin-2-ylmethyl)piperazine-2-carboxamide], the pEC50 was 5.82. The figure for `Cc1cccn2c(C(C)(C)NC(=O)[C@@H]3CN(Cc4cccnc4)CCN3)ncc12` [SC-061, (S)-N-(2-(8-methylimidazo[1,5-a]pyridin-3-yl)propan-2-yl)-4-(pyridin-3-ylmethyl)piperazine-2-carboxamide] is 5.77; for `Cc1cccn2c(C(C)(C)NC(=O)[C@@H]3CN(Cc4cnco4)CCN3)ncc12` [SC-062, (S)-N-(2-(8-methylimidazo[1,5-a]pyridin-3-yl)propan-2-yl)-4-(oxazol-5-ylmethyl)piperazine-2-carboxamide] it is 6.66. Consider `Cc1cccn2c(C(C)(C)NC(=O)[C@@H]3CN(Cc4cocn4)CCN3)ncc12` [SC-063, (S)-N-(2-(8-methylimidazo[1,5-a]pyridin-3-yl)propan-2-yl)-4-(oxazol-4-ylmethyl)piperazine-2-carboxamide], for which the pEC50 is 6.03. On to `Cc1cccn2c(C(C)(C)NC(=O)[C@@H]3CN(Cc4cc(C(F)(F)F)nn4C)CCN3)ncc12` [SC-064, (S)-4-((1-methyl-3-(trifluoromethyl)-1H-pyrazol-5-yl)methyl)-N-(2-(8-methylimidazo[1,5-a]pyridin-3-yl)propan-2-yl)piperazine-2-carboxamide], for which the pEC50 was 4.89. The figure for `Cc1cccn2c(C(C)(C)NC(=O)[C@@H]3CN(Cc4ncco4)CCN3)ncc12` [SC-065, (S)-N-(2-(8-methylimidazo[1,5-a]pyridin-3-yl)propan-2-yl)-4-(oxazol-2-ylmethyl)piperazine-2-carboxamide] is 5.89; for `Cc1cccn2c(C(C)(C)NC(=O)[C@@H]3CN(Cc4ccn(C)n4)CCN3)ncc12` [SC-066, (S)-4-((1-methyl-1H-pyrazol-3-yl)methyl)-N-(2-(8-methylimidazo[1,5-a]pyridin-3-yl)propan-2-yl)piperazine-2-carboxamide] it is 5.80. `Cc1cccn2c(C(C)(C)NC(=O)[C@@H]3CN(CC4CCC(F)(F)CC4)CCN3)ncc12` [SC-067, (S)-4-((4,4-difluorocyclohexyl)methyl)-N-(2-(8-methylimidazo[1,5-a]pyridin-3-yl)propan-2-yl)piperazine-2-carboxamide]: the pEC50 was 5.62.

As to `Cc1cccn2c(C(C)(C)NC(=O)[C@@H]3CN(CC4CCC4)CCN3)ncc12` [SC-068, (S)-4-(cyclobutylmethyl)-N-(2-(8-methylimidazo[1,5-a]pyridin-3-yl)propan-2-yl)piperazine-2-carboxamide], the pEC50 was 6.23. The value for `Cc1cccn2c(C(C)(C)NC(=O)[C@@H]3CN(CC(C)C)CCN3)ncc12` [SC-069, (S)-4-isobutyl-N-(2-(8-methylimidazo[1,5-a]pyridin-3-yl)propan-2-yl)piperazine-2-carboxamide] was 6.52; that for `CCCN1CCN[C@H](C(=O)NC(C)(C)c2ncc3c(C)cccn23)C1` [SC-070, (S)-N-(2-(8-methylimidazo[1,5-a]pyridin-3-yl)propan-2-yl)-4-propylpiperazine-2-carboxamide] was 7.09. The figure for `Cc1cccn2c(C(C)(C)NC(=O)[C@@H]3CN(Cc4cnn(C)c4)CCN3)ncc12` [SC-071, (S)-4-((1-methyl-1H-pyrazol-4-yl)methyl)-N-(2-(8-methylimidazo[1,5-a]pyridin-3-yl)propan-2-yl)piperazine-2-carboxamide] is 6.27. The value for `Cc1cccn2c(C(C)(C)NC(=O)[C@@H]3CN(Cc4ccnn4C)CCN3)ncc12` [SC-072, (S)-4-((1-methyl-1H-pyrazol-5-yl)methyl)-N-(2-(8-methylimidazo[1,5-a]pyridin-3-yl)propan-2-yl)piperazine-2-carboxamide] was 5.92. For `Cc1cccn2c(C(C)(C)NC(=O)[C@@H]3CN(Cc4ccn(C(C)C)n4)CCN3)ncc12` [SC-073, (S)-4-((1-isopropyl-1H-pyrazol-3-yl)methyl)-N-(2-(8-methylimidazo[1,5-a]pyridin-3-yl)propan-2-yl)piperazine-2-carboxamide], the pEC50 was 5.32. Turning to `Cc1cccn2c(C(C)(C)NC(=O)[C@@H]3CN(Cc4cnn(C(C)C)c4)CCN3)ncc12` [SC-074, (S)-4-((1-isopropyl-1H-pyrazol-4-yl)methyl)-N-(2-(8-methylimidazo[1,5-a]pyridin-3-yl)propan-2-yl)piperazine-2-carboxamide], the pEC50 was 5.59.

Regarding `Cc1cccn2c(C(C)(C)NC(=O)[C@@H]3CN(C4COC4)CCN3)ncc12` [SC-075, (S)-N-(2-(8-methylimidazo[1,5-a]pyridin-3-yl)propan-2-yl)-4-(oxetan-3-yl)piperazine-2-carboxamide], the pEC50 is 6.21. The value for `Cc1cccn2c(C(C)(C)NC(=O)[C@@H]3CN(CC4COC4)CCN3)ncc12` [SC-076, (S)-N-(2-(8-methylimidazo[1,5-a]pyridin-3-yl)propan-2-yl)-4-(oxetan-3-ylmethyl)piperazine-2-carboxamide] was 6.21; that for `Cc1cccn2c(C(C)(C)NC(=O)[C@@H]3CN(C(=O)C4CC4)CCN3)ncc12` [SC-077, (S)-4-(cyclopropanecarbonyl)-N-(2-(8-methylimidazo[1,5-a]pyridin-3-yl)propan-2-yl)piperazine-2-carboxamide] was under 6.00. The value for `Cc1cccn2c(C(C)(C)NC(=O)[C@@H]3CN(C(=O)C4CCOCC4)CCN3)ncc12` [SC-078, (S)-N-(2-(8-methylimidazo[1,5-a]pyridin-3-yl)propan-2-yl)-4-(tetrahydro-2H-pyran-4-carbonyl)piperazine-2-carboxamide] was 5.19; that for `Cc1cccn2c(C(C)(C)NC(=O)[C@@H]3CN(C(=O)CC4CCOCC4)CCN3)ncc12` [SC-079, (S)-N-(2-(8-methylimidazo[1,5-a]pyridin-3-yl)propan-2-yl)-4-(2-(tetrahydro-2H-pyran-4-yl)acetyl)piperazine-2-carboxamide] was 4.82; that for `Cc1cccn2c(C(C)(C)NC(=O)[C@@H]3CN(C(=O)C4CC(F)(F)C4)CCN3)ncc12` [SC-080, (S)-4-(3,3-difluorocyclobutane-1-carbonyl)-N-(2-(8-methylimidazo[1,5-a]pyridin-3-yl)propan-2-yl)piperazine-2-carboxamide] was under 5.00. The value for `Cc1cccn2c(C(C)(C)NC(=O)[C@@H]3CN(C(=O)c4cnn(C(C)C)c4)CCN3)ncc12` [SC-081, (S)-4-(1-isopropyl-1H-pyrazole-4-carbonyl)-N-(2-(8-methylimidazo[1,5-a]pyridin-3-yl)propan-2-yl)piperazine-2-carboxamide] was under 5.00; that for `Cc1cccn2c(C(C)(C)NC(=O)[C@@H]3CN(C(=O)c4ccnn4C)CCN3)ncc12` [SC-082, (S)-4-(1-methyl-1H-pyrazole-5-carbonyl)-N-(2-(8-methylimidazo[1,5-a]pyridin-3-yl)propan-2-yl)piperazine-2-carboxamide] was 5.27. As to `Cc1cccn2c(C(C)(C)NC(=O)[C@@H]3CN(C(=O)c4cnn(C)c4)CCN3)ncc12` [SC-083, (S)-4-(1-methyl-1H-pyrazole-4-carbonyl)-N-(2-(8-methylimidazo[1,5-a]pyridin-3-yl)propan-2-yl)piperazine-2-carboxamide], the pEC50 is 5.17.
